Data from paper PMC12446476 (Nature Communications, 2025).
In brackets after ≈: the same amount, converted by molar mass. Several values for one entry are separate records, joined by “and”; a condition that tells them apart may be missing. Identical values can stand only once. Like-named read-outs stand apart in the source and are kept apart here.

What was measured:
N. gonorrhoeae = test: MIC determination, agar dilution (CLSI); format: cell-based, Neisseria gonorrhoeae
In short: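 For N. gonorrhoeae, WHO 2024 reference strains served as quality control, only whole doubling-dilution MICs were reported, and isolates were classified by EUCAST v14.0 breakpoints or ECOFF. Time-kill assays followed CLSI in Columbia broth with 1% IsoVitaleX, and viable counts came from plating serial dilutions on GC agar with IsoVitaleX.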

S. aureus ATCC 29213 = test: S. aureus neutropenic murine thigh infection model; format: in vivo, mouse; conditions: for reduction in thighs: dosed as Debio 1453 P; for Mean Diff. 0h vs. treatment, log10 CFU: S. aureus ATCC 29213, daily dose
Procedure: The S. aureus neutropenic murine thigh infection model was performed in accordance with the Guide for Care and Use of Laboratory Animals[75]. Animal rooms were maintained at a temperature range of 20–24 °C and humidity between 30% and 70%, with 12 h light/dark cycles. Female ICR mice (BioLASCO Taiwan Co., Ltd.) were rendered neutropenic via IP injection of cyclophosphamide four days before infection (150 mg/kg) and again one day before infection (100 mg/kg). Animals were anaesthetised with isoflurane (3–5%), then inoculated intramuscularly with S. aureus ATCC 29213 (~1 × 10^5 CFU/mouse). […] Animals were sacrificed via CO2 asphyxiation at either 2 h (baseline), 26 and/or 50 h post-infection. Thigh tissues were harvested and homogenised in 3 mL sterile PBS (pH 7.4). Bacterial burdens were determined by performing 10-fold serial dilutions and plating on nutrient agar plates.

[1] = tested on: intracellular N. gonorrhoeae; test: Intracellular killing in HeLa229 cells; format: cell-based, Neisseria gonorrhoeae; conditions: for reduction of intracellular bacteria: within 24 h; for Colony forming units (CFU) of N. gonorrhoeae internalised in HeLa229 cells, colony count: dilution 0, replicates 1-3, counts 1-2
Procedure: Intracellular killing was assessed within HeLa229 cells (European Collection of Authenticated Cell Cultures, London, UK) that were seeded at ~3 × 10^5 cells/mL and grown to 70–80% confluence in RPMI-glutamine media supplemented with 10% (v/v) heat-inactivated fetal bovine serum (FBS, Gibco, MA, USA). Cells were incubated at 37 °C with 5% CO2 for 24 h, then washed with serum-free RPMI-1640 prior to infection. N. gonorrhoeae was scraped from agar plates and resuspended in Dulbecco’s Phosphate Buffered Saline (DPBS, Sigma-Aldrich), pelleted, then resuspended in RPMI with 2% FBS. Bacterial suspensions were used to infect HeLa229 cells at a multiplicity of infection of 100:1. Plates were briefly centrifuged (500 × g for 5 min), then incubated for one hour. This incubation and all subsequent incubations were performed at 37 °C with 5% CO2. Non-adherent cells were removed by washing with serum-free RPMI, and the remaining extracellular bacteria were killed via resuspension in RPMI-glutamine supplemented with 2% FBS and 200 μg/mL gentamycin and incubation for one hour. […] Azithromycin-treated samples were included for control/comparison. […] Samples were diluted and plated onto chocolate II agar for viable bacteria quantification. Intracellular killing assays were performed at Microbiologics, Kalamazoo, MI, USA, using a method adapted from previous studies[68],[69].

[2] = Neisseria gonorrhoeae, 100 contemporary clinical N. gonorrhoeae isolates

SMILES: Cc1c(CN(C)C(=O)/C=C/c2cnc3c(c2)N[C@H](C)[C@H](O)C(=O)N3)oc2ccccc12 [Debio 1453]
- MIC (N. gonorrhoeae; Neisseria gonorrhoeae, screening panel N. gonorrhoeae isolate J, read-out: Minimum inhibitory concentration): 0.06 µg/mL (≈ 0.143 µM)
- MIC (N. gonorrhoeae; Neisseria gonorrhoeae, screening panel N. gonorrhoeae isolate K, read-out: Minimum inhibitory concentration): 0.125 µg/mL (≈ 0.297 µM)
- MIC (N. gonorrhoeae; Neisseria gonorrhoeae, screening panel N. gonorrhoeae isolate L, read-out: Minimum inhibitory concentration): 0.06 µg/mL (≈ 0.143 µM)
- MIC (N. gonorrhoeae; Neisseria gonorrhoeae, screening panel N. gonorrhoeae isolate M, read-out: Minimum inhibitory concentration): 0.03 µg/mL (≈ 0.0713 µM)
- MIC (N. gonorrhoeae; Neisseria gonorrhoeae, screening panel N. gonorrhoeae isolate N, read-out: Minimum inhibitory concentration): 0.03 µg/mL (≈ 0.0713 µM)
- MIC (N. gonorrhoeae; Neisseria gonorrhoeae, two clones of strain 6804 with FabI L257F): 0.25 µg/mL (≈ 0.595 µM)
- MIC50 (N. gonorrhoeae; [2]): 0.06 µg/mL (≈ 0.143 µM)
- MIC90 (N. gonorrhoeae; [2]): 0.06 µg/mL (≈ 0.143 µM)
- NgMIC50 (N. gonorrhoeae; screening panel of 14 N. gonorrhoeae isolates): 0.03 µg/mL
- reduction in thighs (S. aureus ATCC 29213; 24 h): > 1 log10CFU/mL
- reduction in thighs (S. aureus ATCC 29213; 48 h): > 2 log10CFU
- Mean Diff. 0h vs. treatment, log10 CFU (S. aureus ATCC 29213; 20 µg/mL Debio 1453, 24h): -1.552
- Mean Diff. 0h vs. treatment, log10 CFU (S. aureus ATCC 29213; 20 µg/mL Debio 1453, 48h): -2.396
- Mean Diff. 0h vs. treatment, log10 CFU (S. aureus ATCC 29213; 40 µg/mL Debio 1453, 24h): -0.054
- Mean Diff. 0h vs. treatment, log10 CFU (S. aureus ATCC 29213; 40 µg/mL Debio 1453, 48h): -1.464
- Mean Diff. 0h vs. treatment, log10 CFU (S. aureus ATCC 29213; 60 µg/mL Debio 1453, 24h): 1.22
- Mean Diff. 0h vs. treatment, log10 CFU (S. aureus ATCC 29213; 60 µg/mL Debio 1453, 48h): 1.476
- Mean Diff. 0h vs. treatment, log10 CFU (S. aureus ATCC 29213; 80 µg/mL Debio 1453, 24h): 1.132
- Mean Diff. 0h vs. treatment, log10 CFU (S. aureus ATCC 29213; 80 µg/mL Debio 1453, 48h): 2.658
- Mean Diff. 0h vs. treatment, log10 CFU (S. aureus ATCC 29213; 160 µg/mL Debio 1453, 24h): 1.558
- Mean Diff. 0h vs. treatment, log10 CFU (S. aureus ATCC 29213; 160 µg/mL Debio 1453, 48h): 2.682
- reduction of intracellular bacteria ([1]; ATCC 49226 in HeLa229 cells): ≥ 3.1 log10CFU/mL
- reduction of intracellular bacteria ([1]; WHO X in HeLa229 cells): ≥ 2.8 log10CFU/mL
- Colony forming units (CFU) of N. gonorrhoeae internalised in HeLa229 cells, colony count ([1]; isolate ATCC 49226, 3 hr, 2X MIC): 39 CFU and 23 CFU and 37 CFU and 34 CFU and 36 CFU and 40 CFU
- Colony forming units (CFU) of N. gonorrhoeae internalised in HeLa229 cells, colony count ([1]; isolate ATCC 49226, 3 hr, 4X MIC): 53 CFU and 63 CFU and 32 CFU and 35 CFU and 51 CFU and 39 CFU
- Colony forming units (CFU) of N. gonorrhoeae internalised in HeLa229 cells, colony count ([1]; isolate ATCC 49226, 3 hr, 8X MIC): 26 CFU and 40 CFU and 33 CFU (2×) and 29 CFU and 38 CFU
- Colony forming units (CFU) of N. gonorrhoeae internalised in HeLa229 cells, colony count ([1]; isolate ATCC 49226, 6 hr, 2X MIC): 5 CFU
- Colony forming units (CFU) of N. gonorrhoeae internalised in HeLa229 cells, colony count ([1]; isolate ATCC 49226, 6 hr, 4X MIC): 5 CFU (2×) and 6 CFU
- Colony forming units (CFU) of N. gonorrhoeae internalised in HeLa229 cells, colony count ([1]; isolate ATCC 49226, 6 hr, 8X MIC): 2 CFU and 6 CFU (2×)
- Colony forming units (CFU) of N. gonorrhoeae internalised in HeLa229 cells, colony count ([1]; isolate ATCC 49226, 10 hr, 2X MIC): 0 CFU
- Colony forming units (CFU) of N. gonorrhoeae internalised in HeLa229 cells, colony count ([1]; isolate ATCC 49226, 10 hr, 4X MIC): 1 CFU (3×) and 0 CFU (3×)
- Colony forming units (CFU) of N. gonorrhoeae internalised in HeLa229 cells, colony count ([1]; isolate ATCC 49226, 10 hr, 8X MIC): 0 CFU
- Colony forming units (CFU) of N. gonorrhoeae internalised in HeLa229 cells, colony count ([1]; isolate ATCC 49226, 24 hr, 2X MIC): 0 CFU
- Colony forming units (CFU) of N. gonorrhoeae internalised in HeLa229 cells, colony count ([1]; isolate ATCC 49226, 24 hr, 4X MIC): 0 CFU
- Colony forming units (CFU) of N. gonorrhoeae internalised in HeLa229 cells, colony count ([1]; isolate ATCC 49226, 24 hr, 8X MIC): 0 CFU
- Colony forming units (CFU) of N. gonorrhoeae internalised in HeLa229 cells, colony count ([1]; isolate NCTC 13820, 3 hr, 2X MIC): 27 CFU and 24 CFU (2×)
- Colony forming units (CFU) of N. gonorrhoeae internalised in HeLa229 cells, colony count ([1]; isolate NCTC 13820, 3 hr, 4X MIC): 25 CFU and 30 CFU and 34 CFU
- Colony forming units (CFU) of N. gonorrhoeae internalised in HeLa229 cells, colony count ([1]; isolate NCTC 13820, 3 hr, 8X MIC): 29 CFU (2×) and 25 CFU and 31 CFU
- Colony forming units (CFU) of N. gonorrhoeae internalised in HeLa229 cells, colony count ([1]; isolate NCTC 13820, 6 hr, 2X MIC): 6 CFU and 12 CFU
- Colony forming units (CFU) of N. gonorrhoeae internalised in HeLa229 cells, colony count ([1]; isolate NCTC 13820, 6 hr, 8X MIC): 5 CFU (2×) and 0 CFU and 11 CFU
- Colony forming units (CFU) of N. gonorrhoeae internalised in HeLa229 cells, colony count ([1]; isolate NCTC 13820, 10 hr, 2X MIC): 1 CFU (2×) and 2 CFU and 0 CFU
- Colony forming units (CFU) of N. gonorrhoeae internalised in HeLa229 cells, colony count ([1]; isolate NCTC 13820, 10 hr, 4X MIC): 1 CFU (2×) and 2 CFU (3×) and 0 CFU
- Colony forming units (CFU) of N. gonorrhoeae internalised in HeLa229 cells, colony count ([1]; isolate NCTC 13820, 10 hr, 8X MIC): 2 CFU and 1 CFU (2×) and 0 CFU (2×)
- Colony forming units (CFU) of N. gonorrhoeae internalised in HeLa229 cells, colony count ([1]; isolate NCTC 13820, 24 hr, 2X MIC): 0 CFU
- Colony forming units (CFU) of N. gonorrhoeae internalised in HeLa229 cells, colony count ([1]; isolate NCTC 13820, 24 hr, 4X MIC): 0 CFU
